Assay results reported in patent US7220745B2, “Heterocyclic compounds useful to treat HCV” (Rigel Pharmaceuticals, priority 2003, dated 2007).

The compounds below were run on HCV replicon (assay: HCV replicon assay (luciferase, 5-2 Luc replicon cells)). Details: Hepatitis C virus, 24 hours with compound, luciferase activity.
Format: cell-based
Excerpt: In one embodiment, the inhibitory activity of the compounds can be confirmed in a replicon assay that assesses the ability of a test compound to block or inhibit HCV replication in replicon cells. One example of a suitable replicon assay is the liver cell-line Huh 7-based replicon assay described in Lohmann et al., 1999, Science 285:110–113. A specific example of this replicon assay which utilizes luciferase translation is provided in the Examples Section. In one embodiment of this assay, the amount of test compound that yields a 50% reduction in translation as compared to a control cell (IC50) may be determined.
The inhibitory activity of certain exemplary compounds of the invention was confirmed using an HCV replicon assay. The HCV replicon can include such features as the HCV 5′ untranslated region including the HCV IRES, the HCV 3′ untranslated region, selected HCV genes encoding HCV polypeptides, selectable markers, and a reporter gene such as luciferase, GFP, etc. In the assay, actively dividing 5–2 Luc replicon-comprising cells (obtained from Ralf Bartenschlager; see Lohmann et al., 1999, Science 285:110–113) were seeded at a density of between about 5,000 and 7,500 cells/well onto 96 well plates (about 90 μl of cells per well) and incubated at 37° C. and 5% CO2 for 24 hours. Then, the test compound (in a volume of about 10 μl) was added to the wells at various concentrations and the cells were incubated for an additional 24 hours before luciferase assay. Briefly, the Bright-Glo reagent was diluted 1:1 with PBS and 100 μl of diluted reagent was added to each well. After 5 min of incubation at room temperature, luciferin emission was quantified with a luminometer. In this assay, the amount of test compound that yielded a 50% reduction in luciferase activity (IC50) was determined.
With `O=[N+]([O-])c1cccc(-c2cnc(-c3c(Cl)cccc3Cl)s2)c1` [Compound 17, 2-(2,6-dichlorophenyl)-5-(3-nitrophenyl)thiazole] the IC50 was > 10 µM.
`O=C(Nc1ccccc1-c1cc(-c2c(Cl)cccc2Cl)no1)C(Cl)Cl` [Compound 18, 2,2-Dichloro-N-[2-[3-(2,6-dichlorophenyl)-5-isoxazolyl]phenyl]Acetamide] was tested, and the IC50 was > 10 µM.
With `O=C(Nc1cccc(-c2cnc(-c3c(Cl)cccc3Cl)s2)c1)C(Cl)Cl` [Compound 19, 2,2-Dichloro-N-[3-[2-(2,6-dichlorophenyl)-5-thiazolyl]phenyl]Acetamide] the IC50 was > 10 µM.
`Nc1cccc(-c2cnc(-c3c(Cl)cccc3Cl)s2)c1` [Compound 20, 2-(2,6-dichlorophenyl)-5-(3-aminophenyl)thiazole] was tested, and the IC50 was > 10 µM.
`O=C(Nc1cccc(-c2cc(-c3c(Cl)cccc3Cl)on2)c1)C(Cl)Cl` [Compound 39, 2,2-Dichloro-N-[3-[5-(2,6-dichlorophenyl)-3-isoxazolyl]phenyl]Acetamide] was tested, and the IC50 was < 10 µM.
In the case of `O=C(Nc1ccc(-c2cc(-c3ccccc3Cl)no2)cc1)C(Cl)Cl` [Compound 55, 2,2-Dichloro-N-[4-[3-(2-chlorophenyl)-5-isoxazolyl]phenyl]Acetamide], the IC50 is reported as ≤ 10 µM.
In the case of `O=C(Nc1ccc(-c2cc(-c3c(F)cccc3F)no2)cc1)C(Cl)Cl` [Compound 59, 2,2-Dichloro-N-[4-[3-(2,6-difluorophenyl)-5-isoxazolyl]phenyl]Acetamide], the IC50 is reported as ≤ 10 µM.
`O=C(Nc1ccc(-c2cc(-c3c(Cl)cccc3Cl)no2)cc1)C(Cl)Cl` [Compound 60, 2,2-Dichloro-N-[4-[3-(2,6-dichlorophenyl)-5-isoxazolyl]phenyl]Acetamide] was tested, and the IC50 was > 10 µM.
